The values that follow come from publication PMC7880688, “Hormone-sensitive lipase couples intergenerational sterol metabolism to reproductive success” (eLife, 2021).

What all share (format): biochemical
Experiment [1] deals with T1, His6-MmHsl (murine Hsl) (Mus musculus, UniProt P54310).
T1 construct: gene Lipe; N-terminal His6 tag kept, COS-7 cell extract; plasmid described previously (Lass et al., 2006)
T1 sequence (P54310 1-759): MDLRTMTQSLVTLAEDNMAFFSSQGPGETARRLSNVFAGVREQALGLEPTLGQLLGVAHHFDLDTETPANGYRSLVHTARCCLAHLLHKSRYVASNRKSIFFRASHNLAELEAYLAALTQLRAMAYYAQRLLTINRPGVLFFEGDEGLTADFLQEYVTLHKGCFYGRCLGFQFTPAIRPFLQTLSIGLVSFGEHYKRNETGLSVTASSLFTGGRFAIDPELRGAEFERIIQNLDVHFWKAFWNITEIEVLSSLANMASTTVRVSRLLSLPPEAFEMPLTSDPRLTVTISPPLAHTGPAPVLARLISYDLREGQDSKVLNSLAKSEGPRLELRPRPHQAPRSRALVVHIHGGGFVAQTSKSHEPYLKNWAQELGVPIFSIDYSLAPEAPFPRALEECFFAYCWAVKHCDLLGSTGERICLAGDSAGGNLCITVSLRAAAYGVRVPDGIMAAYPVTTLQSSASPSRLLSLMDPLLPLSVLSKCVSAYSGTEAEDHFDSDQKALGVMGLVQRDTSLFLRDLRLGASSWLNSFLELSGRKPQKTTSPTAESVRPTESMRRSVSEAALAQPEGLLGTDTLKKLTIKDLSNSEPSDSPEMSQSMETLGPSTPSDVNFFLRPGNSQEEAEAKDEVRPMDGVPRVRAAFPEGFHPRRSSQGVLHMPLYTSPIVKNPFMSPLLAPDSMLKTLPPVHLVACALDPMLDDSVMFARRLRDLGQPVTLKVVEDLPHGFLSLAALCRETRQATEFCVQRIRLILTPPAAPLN
Put plainly: colorimetric free fatty acid release (NEFA kit). The settings on record: 0.3 mM substrate emulsified with PC/PI, 2% BSA, BTP buffer pH 7.5, 37°C, 30-60 min.

Experiment [2] addresses T2, His6-Hsl (Drosophila Hsl) (Drosophila melanogaster, UniProt A4UZQ8).
T2 construct: Hsl open reading frame from cDNA RE52776 in pcDNA4/HisMax C, N-terminal His6 tag kept, COS-7 cell extract
T2 sequence (A4UZQ8 2-881): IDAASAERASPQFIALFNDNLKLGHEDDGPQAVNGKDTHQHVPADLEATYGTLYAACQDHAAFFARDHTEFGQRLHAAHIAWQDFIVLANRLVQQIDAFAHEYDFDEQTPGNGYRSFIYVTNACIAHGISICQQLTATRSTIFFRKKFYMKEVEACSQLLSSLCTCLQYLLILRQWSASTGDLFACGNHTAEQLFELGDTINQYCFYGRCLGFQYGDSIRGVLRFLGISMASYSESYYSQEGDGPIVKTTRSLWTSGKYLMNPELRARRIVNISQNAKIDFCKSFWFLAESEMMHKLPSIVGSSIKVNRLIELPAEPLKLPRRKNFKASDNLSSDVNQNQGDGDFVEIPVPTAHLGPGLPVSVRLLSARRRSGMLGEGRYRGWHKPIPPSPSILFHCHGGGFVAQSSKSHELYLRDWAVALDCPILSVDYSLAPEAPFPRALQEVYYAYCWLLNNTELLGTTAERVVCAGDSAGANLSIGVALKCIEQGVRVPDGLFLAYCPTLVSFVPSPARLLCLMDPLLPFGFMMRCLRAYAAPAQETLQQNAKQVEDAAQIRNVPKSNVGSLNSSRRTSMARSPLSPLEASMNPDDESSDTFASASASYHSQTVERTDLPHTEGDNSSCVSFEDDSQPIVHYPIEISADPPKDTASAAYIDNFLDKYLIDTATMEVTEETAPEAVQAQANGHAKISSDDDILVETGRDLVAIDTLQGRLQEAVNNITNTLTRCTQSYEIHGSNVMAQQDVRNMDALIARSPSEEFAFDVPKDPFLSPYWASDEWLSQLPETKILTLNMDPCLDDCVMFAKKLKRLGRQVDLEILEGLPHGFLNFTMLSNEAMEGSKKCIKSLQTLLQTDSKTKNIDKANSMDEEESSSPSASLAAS
Put plainly: colorimetric free fatty acid release (NEFA kit). The settings on record: 0.3 mM substrate emulsified with PC/PI, 2% BSA, BTP buffer pH 7.5, 37°C, 30-60 min.

Experiment [3] addresses T1, His6-MmHsl (murine Hsl). Put plainly: release of labelled fatty acid, scintillation counting. The settings on record: 0.45 mM substrate emulsified with PC/PI, 5% BSA, BTP buffer pH 7.5, 37°C, 60 min; labelled compound (14C-cholesteryl oleate tracer).
Experiment [4] has as its target T2, His6-Hsl (Drosophila Hsl). The experiment is described as above. The settings on record: 0.45 mM substrate emulsified with PC/PI, 5% BSA, BTP buffer pH 7.5, 37°C, 60 min; labelled compound (14C-cholesteryl oleate tracer).

Take `CCCCCCCC/C=C\CCCCCCCC(=O)OCC(CO)OC(=O)CCCCCCC/C=C\CCCCCCCC` (racemic) [DG 36:2, 1,2-dioleoyl-rac-glycerol]: the “colorimetric free fatty acid release (NEFA kit)” value was “Expression of His6-MmHsl increased cellular hydrolysis rates toward monoacylglycerol (MG), DG, TG, and SE” on His6-MmHsl (murine Hsl) [1]; “Expression of fly His6-Hsl elevated cellular hydrolysis rates toward MG, DG, TG, and SE” in experiment [2].
`CCCCCCCC/C=C\CCCCCCCC(=O)O[C@H]1CC[C@@]2(C)C(=CC[C@H]3[C@@H]4CC[C@H]([C@H](C)CCCC(C)C)[C@@]4(C)CC[C@@H]32)C1` [CE 18:1, cholesteryl oleate]: the “release of labelled fatty acid, scintillation counting” value on His6-MmHsl (murine Hsl) [3] is “Expression of His6-MmHsl increased cellular hydrolysis rates toward monoacylglycerol (MG), DG, TG, and SE”; in experiment [4], “Expression of fly His6-Hsl elevated cellular hydrolysis rates toward MG, DG, TG, and SE”.
